Usually IC50 stands for the concentration that gives 50% inhibition.

For 43 compounds, IC50 results are on record in patent publication US9920073B2, “Compositions useful for inhibiting HIV-1 infection and methods using same” (Drexel University, priority 2013, dated 2018).

Read-outs that look alike come from different tables or passages of the source.

Test [1] has as its system amphotropic murine leukemia virus (AMLV). The test can be described thus: microbe, parasite or virus in culture. The class given is cell-based. Particulars: specificity control.
The test system of test [2] is HIV-1YU-2. The test can be described thus: microbe, parasite or virus in culture. The class given is cell-based.
Where [3] appears, read: Murine leukemia virus, read-out: IC50 AMLV, Table 2 screening results.
Where [4] appears, read: Human immunodeficiency virus 1, read-out: IC50 YU-2, single round infection assay.
The mark [5] stands for this setting: read-out: IC50 YU-2, single round infection assay.
The mark [6] stands for this setting: read-out: IC50 AMLV, Table 2 screening results.

On to `O=C(c1ccccc1)N1CCN(C(=O)c2ccc(N3CCOCC3)c([N+](=O)[O-])c2)CC1` [Compound 29], for which the IC50 in test [1] (setting [3]) and in test [2] (setting [4]) was above 50 µM each time.

Turning to `COc1cccc(C(=O)N2CCN(C(=O)COc3cccc4ccccc34)CC2)c1` [Compound 47], the IC50 in test [1] (setting [3]) and in test [2] (setting [4]) was above 50 µM throughout.

As to `O=C(c1ccccc1)N1CCN(C(=O)c2ccc3c4c(cccc24)CC3)CC1` [Compound 11], the values for the IC50 in test [1] (setting [3]) and in test [2] (setting [5]) were above 300 µM and 15.7 µM, respectively.

For the compound `O=C(c1cnccn1)N1CCN(C(=O)c2cc3ccccc3cc2O)CC1` [Compound 24], the IC50 in test [1] (setting [3]) and in test [2] (setting [4]) was above 300 µM throughout.

Consider `O=C(c1ccccc1)N1CCN(C(=O)c2cc(-c3ccncc3)nc3ccccc23)CC1` [Compound 27], for which the IC50 in test [1] (setting [3]) and in test [2] (setting [4]) was above 50 µM in each case.

Take `O=C(COc1cccc(Br)c1)N1CCN(C(=O)c2ccccc2)CC1` [Compound 6]: the concentration for half-maximal inhibition (IC50) in test [1] (setting [3]) and in test [2] (setting [4]) was above 300 µM throughout.

As to `Cc1nn(-c2ccccc2)c(C)c1C(=O)C(=O)N1CCN(C(=O)c2ccccc2)CC1` [Compound 20], the IC50 in test [1] (setting [6]) and in test [2] (setting [5]) was above 300 µM in each case.

On to `CC(C)n1ncc2c(C(=O)N3CCN(C(=O)c4ccccc4)CC3)cc(-c3ccco3)nc21` [Compound 37], for which the IC50 in test [1] (setting [3]) and in test [2] (setting [4]) was above 50 µM throughout.

On to `CC(C(=O)N1CCCc2ccccc21)N1CCN(C(=O)c2ccccc2)CC1` (centres unmarked) [Compound 25], for which the half-inhibitory concentration (IC50) in test [1] (setting [3]) and in test [2] (setting [4]) was above 50 µM each time.

As to `Cc1cccc(C(=O)N2CCN(S(=O)(=O)c3ccc(C)c(C)c3)CC2)c1` [Compound 10], the IC50 in test [1] (setting [3]) and in test [2] (setting [4]) was above 300 µM throughout.

As for `O=C(C1=Cc2cc(Br)ccc2OC1)N1CCN(C(=O)c2ccccc2)CC1` [Compound 19], the IC50 in test [1] (setting [3]) and in test [2] (setting [4]) was above 300 µM throughout.

For the compound `O=C(c1ccccc1)N1CCN(C(=O)c2ccc3noc(-c4ccccc4)c3c2)CC1` [Compound 46], the IC50 in test [1] (setting [3]) and in test [2] (setting [4]) was above 50 µM throughout.

For `O=C(c1ccco1)N1CCN(C(O)COc2ccc(Cl)cc2[N+](=O)[O-])CC1` (centres unmarked) [Compound 39], the half-maximal inhibitory concentration (IC50) in test [1] (setting [3]) and in test [2] (setting [4]) was above 50 µM in each case.

For `O=C(c1ccccc1)N1CCN(C(=O)c2ccc3c(c2)CCC3)CC1` [Compound 8], the IC50 in test [1] (setting [3]) and in test [2] (setting [4]) was above 300 µM throughout.

For the compound `Cc1ccc(C(C)C)c(OCC(=O)N2CCN(C(=O)c3ccccc3)CC2)c1` [Compound 18], the 50% inhibitory concentration (IC50) in test [1] (setting [6]) and in test [2] (setting [5]) was above 300 µM throughout.

On to `Cc1cnc2c(S(=O)(=O)N3CCN(C(=O)c4ccc(C)s4)CC3)cccc2c1` [Compound 35], for which the IC50 in test [1] (setting [3]) and in test [2] (setting [4]) was above 50 µM in each case.

Take `O=C(CSC1=Nc2ccccc2CS1)N1CCN(C(=O)c2cccs2)CC1` [Compound 41]: the IC50 in test [1] (setting [3]) and in test [2] (setting [4]) was above 50 µM in each case.

For `O=C(c1ccccn1)N1CCN(S(=O)(=O)c2ccc3ccccc3c2)CC1` [Compound 1], the IC50 in test [1] (setting [3]) and in test [2] (setting [4]) was above 300 µM throughout.

For `O=C(COc1ncnc2sc(-c3ccccc3)cc12)N1CCN(C(=O)c2ccco2)CC1` [Compound 26], the IC50 in test [1] (setting [3]) and in test [2] (setting [4]) was above 50 µM in each case.

With `Cc1cc(C)nc(SCC(=O)N2CCN(C(=O)c3ccccc3)CC2)n1` [Compound 34], the IC50 was above 50 µM in test [1] (setting [3]) and 19.4 µM in test [2] (setting [4]).

On to `Cc1ccc2nc(C)c(C(=O)N3CCN(C(=O)c4ccccc4)CC3)cc2c1` [Compound 9], for which the IC50 in test [1] (setting [3]) and in test [2] (setting [4]) was above 300 µM throughout.

For `COc1ccc(C(=O)N2CCN(C(=O)COc3cccc4ccccc34)CC2)cc1` [Compound 50], the IC50 in test [1] (setting [3]) and in test [2] (setting [4]) was above 50 µM in each case.

As to `CCN(CC)S(=O)(=O)N1CCN(C(=O)C(=O)c2c(C)[nH]c3ccccc23)CC1` [Compound 48], the IC50 in test [1] (setting [3]) and in test [2] (setting [4]) was above 50 µM each time.

As for `COc1ccc(OC)c(CCC(=O)N2CCN(C(=O)c3cccc(OC(F)F)c3)CC2)c1` [Compound 44], the IC50 in test [1] (setting [3]) and in test [2] (setting [4]) was above 50 µM each time.

Regarding `COc1ccc(OC)c(/C=C/C(=O)N2CCN(C(=O)C3CC3)CC2)c1` [Compound 45], the IC50 in test [1] (setting [3]) and in test [2] (setting [4]) was above 50 µM in each case.

On to `O=C(c1ccccn1)N1CCN(S(=O)(=O)c2ccc3c(c2)OCCO3)CC1` [Compound 3], for which the IC50 in test [1] (setting [3]) and in test [2] (setting [4]) was above 300 µM in each case.

For the compound `O=C(c1ccccc1)N1CCN(C(=O)c2csc(-c3ccccc3)n2)CC1` [Compound 16], the IC50 in test [1] (setting [3]) and in test [2] (setting [4]) was above 300 µM in each case.

`O=C(COc1cccc2ccccc12)N1CCN(C(=O)c2ccccc2F)CC1` [Compound 33]: the IC50 in test [1] (setting [3]) and in test [2] (setting [4]) was above 50 µM in each case.

With `CCOC(=O)N1CCN(C(=O)C(=O)c2c(C)[nH]c3ccccc23)CC1` [Compound 31], the half-maximal inhibitory concentration (IC50) in test [1] (setting [3]) and in test [2] (setting [4]) was above 50 µM in each case.

Consider `Cc1nn(-c2ccccc2)c(C)c1C(=O)C(=O)N1CCN(C(=O)c2ccccc2)CC1` [Compound 36], for which the half-inhibitory concentration (IC50) in test [1] (setting [6]) and in test [2] (setting [5]) was above 50 µM each time.

For the compound `Cc1nc2ccc(Cl)cc2cc1C(=O)N1CCN(S(=O)(=O)c2ccccc2)CC1` [Compound 17], the IC50 came to 238 µM in test [1] (setting [3]) and 193 µM in test [2] (setting [4]).

Consider `O=C(Cc1cccc2ccccc12)N1CCN(C(=O)c2ccco2)CC1` [Compound 32], for which the IC50 was above 50 µM in test [1] (setting [3]) and 22.8 µM in test [2] (setting [4]).

For the compound `CCc1cc(C(=O)N2CCN(C(=O)c3ccccc3)CC2)sc1C` [Compound 5], the IC50 in test [1] (setting [3]) and in test [2] (setting [4]) was above 300 µM throughout.

In the case of `O=C(CSc1ncnc2sccc12)N1CCN(C(=O)c2cccs2)CC1` [Compound 28], the IC50 in test [1] (setting [3]) was above 50 µM; in test [2] (setting [4]), 1.6 ± 0.4 µM.

In the case of `Cc1c(C)c(C)c(S(=O)(=O)N2CCN(C(=O)c3cccnc3O)CC2)c(C)c1C` [Compound 21], the IC50 in test [1] (setting [3]) and in test [2] (setting [4]) was above 300 µM throughout.

In the case of `COc1ccc(O)cc1NCC(=O)N1CCN(S(=O)(=O)c2ccc3c(c2)CCC3)CC1` [Compound 42], the IC50 in test [1] (setting [3]) and in test [2] (setting [4]) was above 50 µM in each case.

In the case of `Cc1nn(C)c2nc(-c3cccs3)cc(C(=O)N3CCN(C(=O)c4ccccc4)CC3)c12` [Compound 38], the IC50 in test [1] (setting [3]) and in test [2] (setting [4]) was above 50 µM each time.

In the case of `O=C(c1ccccc1)N1CCN(S(=O)(=O)c2ccc3c(c2)CCCC3)CC1` [Compound 13], the values for the IC50 in test [1] (setting [3]) and in test [2] (setting [4]) were 197 µM and 117 µM, respectively.

`O=C1CSc2ccc(C(=O)N3CCN(C(=O)c4cccs4)CC3)cc2N1` [Compound 7]: the concentration for half-maximal inhibition (IC50) in test [1] (setting [3]) and in test [2] (setting [4]) was above 300 µM each time.

In the case of `O=C(c1ccccc1)N1CCN(S(=O)(=O)c2ccc(Cl)c(C(F)(F)F)c2)CC1` [Compound 4], the IC50 in test [1] (setting [3]) and in test [2] (setting [4]) was above 300 µM in each case.

Regarding `Cc1ccc(C(C)C)c(OCC(=O)N2CCN(C(=O)c3ccccc3)CC2)c1` [Compound 49], the IC50 in test [1] (setting [6]) and in test [2] (setting [5]) was above 50 µM throughout.

Take `O=C(COc1cccc2ccccc12)N1CCN(C(=O)c2ccccc2)CC1` [Compound 12]: the 50% inhibitory concentration (IC50) in test [1] (setting [3]) was above 300 µM; in test [2] (setting [4]), 53.3 ± 3.7 µM.

As for `CCc1ccc(C(=O)N2CCN(C(=O)c3cc4cc(C)ccc4nc3C)CC2)cc1` [Compound 22], the IC50 in test [1] (setting [3]) and in test [2] (setting [4]) was above 300 µM in each case.
